# Data as given in publication PMC3509583, “Molecular Mechanisms of Pharmaceutical Drug Binding into Calsequestrin” (International Journal of Molecular Sciences, 2012).
# Read-outs that look alike come from different tables or passages of the source.
# Tests used:
# [1] = target: T1, human cardiac calsequestrin (hCASQ2) (Homo sapiens, UniProt O14958); design: method as in PMID 20713040; conditions: cited from earlier work; for binding class based on ITC dissociation constants (Kd): hCASQ2, drugs grouped as strong, moderate or poor binders; for Kd: hCASQ2, ITC, previous studies, read-out: experimental dissociation constant (Kd)
# T1 sequence (O14958 20-399): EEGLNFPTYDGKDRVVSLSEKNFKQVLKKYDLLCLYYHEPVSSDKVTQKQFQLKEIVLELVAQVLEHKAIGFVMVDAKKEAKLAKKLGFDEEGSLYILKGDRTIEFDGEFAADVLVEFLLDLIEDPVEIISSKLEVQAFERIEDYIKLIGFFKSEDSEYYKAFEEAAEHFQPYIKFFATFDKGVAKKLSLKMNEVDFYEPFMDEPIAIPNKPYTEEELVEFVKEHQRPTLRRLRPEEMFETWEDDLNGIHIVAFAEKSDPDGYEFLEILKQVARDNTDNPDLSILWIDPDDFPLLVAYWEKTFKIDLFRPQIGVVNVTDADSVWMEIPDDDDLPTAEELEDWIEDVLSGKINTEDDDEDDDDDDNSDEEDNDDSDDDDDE
# [2] = target: T1, human cardiac calsequestrin (hCASQ2); experiment: Isothermal titration calorimetry (ITC) of drug binding to hCASQ2, with or without caffeine; conditions: hCASQ2, titration in the absence of caffeine (Supplemental Fig. 2); read-out: Dissociation constant (Kd)
# Protocol: We performed ITC assays to check the predicted competition between the natural compounds (CAF, EGC, and EGCG) and tested synthetic drugs.
# ITC experiments were conducted using a previous protocol, with slight modifications. The protein and drug concentrations were kept at 50 μM and 2 mM, respectively, while the CAF concentration was allowed to vary between 0 and 5 mM for different drugs. […] Origin software (Origin Lab Corp, Northampton, MA, USA) was used to fit the data to a one-site binding model via non-linear least squares regression.
# [3] = system: SR microsomes; design: method as in PMID 16141311, PMID 15492117; conditions: concentration- and time-dependent; cited from earlier work
SMILES,binding class based on ITC dissociation constants (Kd) [1],Kd [1] [µM],Kd [2] [µM],total SR microsomal Ca2+ content [3]
CN(C)CCC=C1c2ccccc2CCc2ccccc21 [amitriptyline],moderate,,,
CCOC(=O)C1=C(COCCN)NC(C)=C(C(=O)OC)C1c1ccccc1Cl (stereo not drawn) [amlodipine],strong,20.4,,
CN(C)CCCN1c2ccccc2Sc2ccc(Cl)cc21 [chlorpromazine],poor,,102,
COc1cccc2c1C(=O)c1c(O)c3c(c(O)c1C2=O)C[C@@](O)(C(C)=O)C[C@@H]3O[C@H]1C[C@H](N)[C@H](O)[C@H](C)O1 [daunomycin],strong,20.3,,
COc1ccc([C@@H]2Sc3ccccc3N(CCN(C)C)C(=O)[C@@H]2OC(C)=O)cc1 [diltiazem],moderate,,41,
COc1cccc2c1C(=O)c1c(O)c3c(c(O)c1C2=O)C[C@@](O)(C(=O)CO)C[C@@H]3O[C@H]1C[C@H](N)[C@H](O)[C@H](C)O1 [doxorubicin],strong,14.4,,
CN[C@@H](C)[C@H](O)c1ccccc1 [ephedrine],poor,,,
CC(C)NCC(O)c1ccc(O)c(O)c1 (stereo not drawn) [isoproterenol],poor,,,
COCCc1ccc(OCC(O)CNC(C)C)cc1 (stereo not drawn) [metoprolol],poor,,,
Clc1ccc(COC(Cn2ccnc2)c2ccc(Cl)cc2Cl)c(Cl)c1 (stereo not drawn) [miconazole],poor,,,
CNCCC=C1c2ccccc2CCc2ccccc21 [nortriptyline],moderate,,,
CC(CN1c2ccccc2Sc2ccccc21)N(C)C (stereo not drawn) [promethazine],moderate,,,
CCCNCC(O)COc1ccccc1C(=O)CCc1ccccc1 (stereo not drawn) [propafenone],poor,,,
CSc1ccc2c(c1)N(CCC1CCCCN1C)c1ccccc1S2 (stereo not drawn) [thioridazine],strong,,22,
CN1CCN(CCCN2c3ccccc3Sc3ccc(C(F)(F)F)cc32)CC1 [trifluoperazine],strong,18.2,36,significantly reduce
